Patent US5278187A, “Pharmaceutical compositions” (British Technology Group Ltd., priority 1985, dated 1994)
In brackets after ≈: the same amount, converted by molar mass. Like-named read-outs stand apart in the source and are kept apart here.

Experiments:
[1] = test system: human mammary epithelial tumor cells (MCF7); assay: Cytotoxic effect on MCF7 cells, colony formation in culture; assay type: cell-based; settings: dose required to reduce by 50% the number of colonies, 37° C., 12-14 days, read-out: ID50 MCF7
Method: (§1) (A) The cytotoxic effects of a variety of compounds of formula (II) on human adenocarcinoma cells of the colon (LOVO) and human mammary epithelial tumor cells (MCF7) grown in culture were studied. A range of doses of the drugs was added on day one to replicate cultures of several hundred cells each, which were then incubated at 37° C. for 12-14 days. The cultures were then fixed and stained and the numbers of colonies per dish counted. The results obtained are shown in Table 1, the individual compounds being identified by the groups R1, R2 and R3 present therein, the last mentioned compound being the compound of formula (I) having R1 =H and R2 =CH3 which is used as a control. The results are expressed in terms of the ID50 which is the dose required to reduce by 50% the number of colonies growing up in the drug-treated cultures compared with untreated controls.

[2] = test system: human adenocarcinoma cells of the colon (LOVO); assay: Cytotoxic effect on LOVO cells, colony formation in culture; assay type: cell-based; settings: dose required to reduce by 50% the number of colonies, 37° C., 12-14 days, read-out: ID50 LOVO
Method: as §1

Water solubility = assay type: physicochemical
Source text: By modification of the nature of the ester groups it is possible to alter the water solubility, lipophilicity and rate of conversion to the active cytotoxic molecules (I). […] Similarly, increased lipophilicity may be obtained in these prodrugs by the introduction of, for example, hydrocarbon groupings such as isobutyl or benzyl and this is reflected by the relatively high Rf values in a 50% v/v chloroform/ethanol/SiO2 thin layer chromatography system as recorded in the Examples given hereinafter. An increased lipophilicity favours better absorption and changes in tissue distribution such as greater penetration of the central nervous system. The more lipophilic products are also the most attractive candidates for the percutaneous treatment of psoriasis. Further, depending upon whether R3 is an electron-withdrawing group, for example benzyl, propargyl or carbethoxymethyl, or an electron-repelling group, for example isobutyl, hydroxyethyl or methoxyethyl, the rate of conversion of the compound (II) to the corresponding compound (I) can be speeded up or slowed down. Thus, by providing some control over the water solubility, lipophilicity and rate of generation of the active species, the prodrug compounds of the present invention provide the ability to modify the tissue distribution and pharmacodynamics of the dioxopiperazine drugs with consequential therapeutic benefit to the patient.

[3] = Incubation under physiological conditions: formation of (I) from the 14C-labelled dimethyl ester and hydrolysis of the diimide (HPLC); assay type: physicochemical; settings: pH 7.2, 37° C.
Method: (B) The rate of formation of the active antitumor agent (I) having R1 […] R2 =H from the corresponding ^14 C-labelled dimethyl ester (II) (R1 =R2 =H, R3 =CH3) following incubation under physiologically conditions, i.e. at 37° C. and pH and 7.2 in normal (0.15M) phosphate buffered saline [Practical Immunology, Hudson and hay (editors), Blackwell Scientific Publications, Second Edition, 1980, page 336] was studied. Sample of the incubation mixture were fractionated at different time intervals using HPLC with a reverse phase ODS column and an aqueous methanol gradient elution system.

Absorption by mouth = assay type: in vivo; settings: oral; in words
[4] = esters corresponding to the diimide (I) in which R1 =R2 =H, read-out: water solubilities

SMILES	IC50 [1] [µM]	IC50 [2] [µM]	other results
CC(CN(CC(N)=O)CC(=O)OCc1ccccc1)N(CC(N)=O)CC(=O)OCc1ccccc1 (racemic) [R1=CH3, R2=H, R3=CH2 C6 H5, dl-NN'-Dibenzyloxycarbonylmethyl-NN'-diaminocarbonylmethyl-1,2-diaminopropane]	22	17	
CC(CN(CC(N)=O)CC(=O)OCc1ccccc1[N+](=O)[O-])N(CC(N)=O)CC(=O)OCc1ccccc1[N+](=O)[O-] (racemic) [R1=CH3, R2=H, R3=o-NO2 --CH2 C6 H5, dl-NN'-Di-o-nitrobenzyloxycarbonylmethyl)-NN'-diaminocarbonylmethyl-1,2-diaminopropane]	16	11	
CC(CN(CC(N)=O)CC(=O)OCc1ccc([N+](=O)[O-])cc1)N(CC(N)=O)CC(=O)OCc1ccc([N+](=O)[O-])cc1 (racemic) [R1=CH3, R2=H, R3=p-NO2 --CH2 C6 H5, dl-NN'-Di-p-nitrobenzyloxycarbonylmethyl-NN'-diaminocarbonylmethyl-1,2-diaminopropane]	21	14	
C[C@H]([C@H](C)N(CC(N)=O)CC(=O)OCC(=O)O)N(CC(N)=O)CC(=O)OCC(=O)O [R1=CH3, R2=CH3, R3=CH2 CO2 H, meso-NN'-Di-(carboxymethyloxycarbonylmethyl)-NN'-diaminocarbonylmethyl-2,3-diaminobutane]	1.1	0.2	
CC(CN1CC(=O)NC(=O)C1)N1CC(=O)NC(=O)C1 (stereo not drawn) [R1=CH3, R2=H, cyclic imide, reference compound]	17	18	
CCCCOCCOC(=O)CN(CCN(CC(N)=O)CC(=O)OCCOCCCC)CC(N)=O [R1=H, R2=H, R3=CH2 CH2 O(CH2)3 CH3, NN'-Di-(2-n-butoxyethoxy)carbonylmethyl-NN'-diaminocarbonylmethyl-1,2-diaminoethane]	36	47	
NC(=O)CN(CCN(CC(N)=O)CC(=O)OCCO)CC(=O)OCCO [R1=H, R2=H, R3=CH2 CH2 OH, NN'-Di-(2-hydroxyethoxy)carbonylmethyl-NN'-diaminocarbonylmethyl-1,2-diaminoethane]			solubility (Water solubility; [4]): > 20 mg/mL
CC(C)COC(=O)CN(CCN(CC(N)=O)CC(=O)OCC(C)C)CC(N)=O [R1=H, R2=H, R3=CH2 CH(CH3)2, NN'-Di-isobutoxycarbonylmethyl-NN'-diaminocarbonylmethyl-1,2-diaminoethane]	121	103	
NC(=O)CN(CCN(CC(N)=O)CC(=O)OCC(=O)O)CC(=O)OCC(=O)O [R1=H, R2=H, R3=CH2 CO2 H, NN'-Di-(carboxymethyloxycarbonylmethyl)-NN'-diaminocarbonylmethyl-1,2-diamonoethane]	46	67	
COC(=O)CN(CCN(CC(N)=O)CC(=O)OC)CC(N)=O [R1=H, R2=H, R3=CH3, NN'-Dimethoxycarbonylmethyl-NN'-diaminocarbonylmethyl-1,2-diaminoethane]	39	28	solubility (Water solubility; [4]): > 20 mg/mL; formation of the active cytotoxic species (I) by cyclisation of the bis-ester ([3]; 0.15M phosphate buffered saline, the Figure, in words): leads to a sustained concentration of the active cytotoxic species
O=C1CN(CCN2CC(=O)NC(=O)C2)CC(=O)N1 [diimide (I) R1=R2=H, 1,2-bis-(3,5-dioxopiperazin-1-yl)ethane, reference compound]			solubility (Water solubility; 20° C., pH 7.2, read-out: water solubility): ~0.1 mg/mL (≈ 0.393 mM); absorption by mouth (Absorption by mouth): not being well absorbed by mouth; half-life ([3]; normal (0.15M) phosphate buffered saline, read-out: half life (hydrolysis to an inactive form) (converted)): ~12 h
